Test results as given in EPA's ToxValDB 9.5 (doi:10.2903/j.efsa.2016.4610).
Values after ≈ are worked out from the molar mass of the structure shown.

Legend:
Folsomia candida = conditions: chronic/long-term; duration: 28 days; reproduction
Tagia sp. = conditions: chronic/long-term; growth
[1] = chronic
Anas platyrhynchos = conditions: chronic/long-term
Apis mellifera = conditions: acute, mortality
Cyprinodon variegatus = conditions: acute; duration: 96 hours; mortality
Pimephales promelas = conditions: chronic/long-term; duration: 35 days; reproduction
Poephila guttata = conditions: acute; oral; unspecified; mortality
Xenopus laevis = conditions: chronic/long-term; duration: 21 days; growth
Aphidius rhopalosiphi = experiment: LR50; higher = less toxic; conditions: acute; duration: 48 hours; mortality
Typhlodromus pyri = experiment: LR50; higher = less toxic; conditions: chronic/long-term; duration: 14 days; mortality

Structure (SMILES) | NOEC (Folsomia candida) | NOEC (Tagia sp.) | NOEC [1] | NOAEL (Anas platyrhynchos) | LD50 (Apis mellifera; dermal) | LD50 (Apis mellifera; oral, unspecified) | LC50 (Cyprinodon variegatus) | NOEC (Pimephales promelas) | LD50 (Poephila guttata) | LD50 (Rattus norvegicus; acute, oral, mortality) | NOAEL (Rattus norvegicus; developmental, development) | NOEC (Xenopus laevis) | LR50 (Aphidius rhopalosiphi) | LR50 (Typhlodromus pyri)
CC(=N)N(C)Cc1ccc(Cl)nc1 [Acetamiprid metabolite (IM-1-5)] | 12.5 mg/kg | 62.5 mg/kg |  |  |  |  |  |  |  |  |  |  |  | 
CC(=NC#N)N(C)Cc1ccc(Cl)nc1 [Acetamiprid] | 0.27 mg/kg |  | 0.0011 mg/L | 9.5 mg/kg-day | 9.26 µg/piece | 8.85 µg/piece | 100 µg/mL (≈ 449 µM) | 9.4 mg/L | 5.7 mg/kg-day | 146 mg/kg-day | 2.5 mg/kg-day | 2.6 mg/L | 2 g/ha | 29.7 g/ha
